From PMC10649961, “Novel Mitochondria-Targeted Amphiphilic Aminophosphonium Salts and Lipids Nanoparticles: Synthesis, Antitumor Activity and Toxicity” (Nanomaterials, 2023)
Like-named read-outs stand apart in the source and are kept apart here.

How the values were obtained:
PANC-1 [1] = assay: cells; details: Homo sapiens, PANC-1, 48 h, read-out: Cytotoxic Effects (IC50)
A549 [2] = assay: cells; details: Homo sapiens, A549, 48 h, read-out: Cytotoxic Effects (IC50)
DU-145 [3] = assay: cells; details: Homo sapiens, DU-145, 48 h, read-out: Cytotoxic Effects (IC50), DU-145, MTT assay, 48 h
MRSA-2 = assay: Antimicrobial activity, serial microdilutions, MRSA-2; format: cell-based, S. aureus; details: Staphylococcus aureus; for MIC: read-out: Minimum Inhibitory Concentration (MIC); for MBC: read-out: Minimum bactericidal and fungicidal concentrations (MBC, MFC)
Protocol: (§1) The antimicrobial activity of test compounds was determined by serial microdilutions in 96-well plates using Mueller-Hinton broth for bacterial culture and Sabouraud broth for yeast culture. Cultures of Gram-positive bacteria were used in the experiment: Staphylococcus aureus ATCC 6538 P FDA 209P, Bacillus cereus ATCC 10702 NCTC 8035, Enterococcus faecalis ATCC 29212; Gram-negative bacteria: Escherichia coli ATCC 25922, Pseudomonas aeruginosa ATCC 9027; and yeast: Candida albicans ATCC 10231, purchased from the State Collection of Pathogenic Microorganisms and Cell Cultures “SCPM-Obolensk” (Obolensk, Russia). Methicillin-resistant strains of S. aureus (MRSA) were isolated from patients with chronic tonsillitis (MRSA-1) and sinusitis (MRSA-2) in the bacteriological laboratory of the Republican Clinical Hospital (Kazan, Russia). The experiments were carried out in triplicate.

M-HeLa [4] = assay: cells; details: Homo sapiens, 48 h, read-out: Cytotoxic Effects (IC50)
HuTu 80 [5] = details: calculated relative to the cell line WI38 (a)
[6] = test system: Staphylococcus aureus ATCC 6538 P FDA 209P; assay: Antimicrobial activity, serial microdilutions, Sa; format: cell-based; design: key to Minimum bactericidal and fungicidal concentrations (MBC, MFC): – means non-active; details: for MIC / MBC: Staphylococcus aureus; for MIC: read-out: Minimum Inhibitory Concentration (MIC); for MBC: read-out: Minimum bactericidal and fungicidal concentrations (MBC, MFC)
Protocol: as §1

PC3 [7] = assay: cells; details: Homo sapiens, PC-3, 48 h, read-out: Cytotoxic Effects (IC50), PC3, MTT assay, 48 h
M-HeLa [8] = details: calculated relative to the cell line WI38 (a)
T98G [9] = assay: cells; details: Homo sapiens, 48 h, read-out: Cytotoxic Effects (IC50)
T98G [10] = test system: T98G
HuTu 80 [11] = assay: cells; details: Homo sapiens, HuTu80, 48 h, read-out: Cytotoxic Effects (IC50)
PC3 [12] = test system: PC3
[13] = test system: Candida albicans ATCC 10231; assay: Antimicrobial activity, serial microdilutions, Ca; format: cell-based; design: key to Minimum Inhibitory Concentration (MIC) / Minimum bactericidal and fungicidal concentrations (MBC, MFC): – means non-active; details: for MIC / MBC: Candida albicans, ATCC10231; for MIC: read-out: Minimum Inhibitory Concentration (MIC); for MBC: read-out: Minimum bactericidal and fungicidal concentrations (MBC, MFC)
Protocol: as §1

Hep G2 [14] = test system: Hep G2
MCF-7 [15] = assay: cells; details: Homo sapiens, MCF7, 48 h, read-out: Cytotoxic Effects (IC50)
[16] = test system: Pseudomonas aeruginosa ATCC 9027; assay: Antimicrobial activity, serial microdilutions, Pa; format: cell-based; design: key to Minimum Inhibitory Concentration (MIC) / Minimum bactericidal and fungicidal concentrations (MBC, MFC): – means non-active; details: for MIC / MBC: Pseudomonas aeruginosa; for MIC: ATCC9027, read-out: Minimum Inhibitory Concentration (MIC); for MBC: ATCC9027, read-out: Minimum bactericidal and fungicidal concentrations (MBC, MFC)
Protocol: as §1

SK-OV-3 [17] = assay: cells; details: Homo sapiens, SK-OV-3, 48 h, read-out: Cytotoxic Effects (IC50)
[18] = test system: Enterococcus faecalis ATCC 29212; assay: Antimicrobial activity, serial microdilutions, Ef; format: cell-based; design: key to Minimum Inhibitory Concentration (MIC) / Minimum bactericidal and fungicidal concentrations (MBC, MFC): – means non-active; details: for MIC / MBC: Enterococcus faecalis; for MIC: ATCC29212, read-out: Minimum Inhibitory Concentration (MIC); for MBC: ATCC29212, read-out: Minimum bactericidal and fungicidal concentrations (MBC, MFC)
Protocol: as §1

Hep G2 [19] = assay: cells; details: Homo sapiens, HepG2, 48 h, read-out: Cytotoxic Effects (IC50)
MRSA-1 = assay: Antimicrobial activity, serial microdilutions, MRSA-1; format: cell-based, S. aureus; design: key to Minimum Inhibitory Concentration (MIC) / Minimum bactericidal and fungicidal concentrations (MBC, MFC): – means non-active; details: for MIC / MBC: Staphylococcus aureus; for MIC: read-out: Minimum Inhibitory Concentration (MIC); for MBC: read-out: Minimum bactericidal and fungicidal concentrations (MBC, MFC)
Protocol: as §1

MCF-7 [20] = test system: MCF-7
A549 [21] = test system: A549
PANC-1 [22] = details: calculated relative to the cell line WI38 (a)
[23] = test system: Bacillus cereus ATCC 10702 NCTC 8035; assay: Antimicrobial activity, serial microdilutions, Bc; format: cell-based; design: key to Minimum bactericidal and fungicidal concentrations (MBC, MFC): – means non-active; details: for MIC / MBC: Bacillus cereus; for MIC: read-out: Minimum Inhibitory Concentration (MIC); for MBC: read-out: Minimum bactericidal and fungicidal concentrations (MBC, MFC)
Protocol: as §1

[24] = test system: Escherichia coli ATCC 25922; assay: Antimicrobial activity, serial microdilutions, Ec; format: cell-based; design: key to Minimum Inhibitory Concentration (MIC) / Minimum bactericidal and fungicidal concentrations (MBC, MFC): – means non-active; details: for MIC / MBC: Escherichia coli; for MIC: ATCC25922, read-out: Minimum Inhibitory Concentration (MIC); for MBC: ATCC25922, read-out: Minimum bactericidal and fungicidal concentrations (MBC, MFC)
Protocol: as §1

SK-OV-3 [25] = test system: SK-OV-3
DU-145 [26] = test system: DU-145
[27] = reference normal cell line not marked at the place (ns cells)
[28] = calculated relative to the cell line WI38 (a)

SMILES | IC50 (PANC-1 [1]) [µM] | IC50 (A549 [2]) [µM] | IC50 (DU-145 [3]) [µM] | MIC (MRSA-2) [µM] | MBC (MRSA-2) [µM] | IC50 (M-HeLa [4]) [µM] | selectivity index (SI) (HuTu 80 [5]) | MIC [6] [µM] | MBC [6] [µM] | IC50 (PC3 [7]) [µM] | selectivity index (SI) (M-HeLa [8]) | IC50 (T98G [9]) [µM] | selectivity index (SI) (T98G [10]; [27]) | IC50 (HuTu 80 [11]) [µM] | IC50 (MCF-7 [15]) [µM] | IC50 (SK-OV-3 [17]) [µM] | IC50 (Hep G2 [19]) [µM] | MIC (MRSA-1) [µM] | selectivity index (SI) (PANC-1 [22]) | MIC ([23]; Bc) [µM] | also measured
CCCCCCCCCC[P+](c1ccccc1)(c1ccccc1)N(CC)CC [6d, Decyl(diethylamino)diphenylphosphonium iodide] | 0.4 ± 0.03 | 8.2 ± 0.7 | 0.43 ± 0.03 | 0.5 ± 0.03 | 0.9 ± 0.08 | 0.24 ± 0.02 | 1.1 | 0.9 ± 0.08 | 62.5 ± 5.4 | 1.4 ± 0.1 | 1.6 | 0.6 ± 0.05 | ns (ns—no selectivity) | 0.35 ± 0.02 | 1.6 ± 0.1 | 3.9 ± 0.4 | 1.3 ± 0.1 | 0.5 ± 0.03 | 1.0 | 0.9 ± 0.08 | selectivity index (SI) (PC3 [12]; [27]): ns (ns—no selectivity); MIC [13]: 62.5 ± 5.4 µM; MBC [13]: 250 ± 19 µM; selectivity index (SI) (Hep G2 [14]; [27]): ns (ns—no selectivity); MIC [16]: 125 ± 10 µM; MBC [16]: 125 ± 9 µM; MIC [18]: 3.9 ± 0.3 µM; MBC [18]: 250 ± 19 µM; MBC (MRSA-1): 0.9 ± 0.07 µM; selectivity index (SI) (MCF-7 [20]; [27]): ns (ns—no selectivity); selectivity index (SI) (A549 [21]; [27]): ns (ns—no selectivity); MBC [23]: 250 ± 21 µM; MIC [24]: 62.5 ± 5.3 µM; MBC [24]: 62.5 ± 5.5 µM; selectivity index (SI) (SK-OV-3 [25]; [27]): ns (ns—no selectivity); selectivity index (SI) (DU-145 [26]; [28]): 1.0
CCCCCCCCCCCCCC[P+](c1ccccc1)(c1ccccc1)N(CC)CC [6e, (Diethylamino)diphenyl(tetradecyl)phosphonium bromide] | 0.3 ± 0.02 | 2.1 ± 0.1 | 0.4 ± 0.02 | 0.5 ± 0.03 | 0.5 ± 0.04 | 0.4 ± 0.03 | 40 | 0.5 ± 0.04 | 0.5 ± 0.04 | 1.5 ± 0.1 | 7.0 | 1.1 ± 0.09 |  | 0.07 ± 0.005 | 1.2 ± 0.1 | 1.6 ± 0.1 | 1.4 ± 0.1 | 0.5 ± 0.04 | 9.3 | 0.9 ± 0.08 | selectivity index (SI) (T98G [10]; [28]): 2.5; selectivity index (SI) (PC3 [12]; [28]): 1.9; MIC [13]: 1.9 ± 0.1 µM; MBC [13]: 15.6 ± 1.2 µM; selectivity index (SI) (Hep G2 [14]; [28]): 2.0; MIC [16]: 3.9 ± 0.3 µM; MBC [16]: 3.9 ± 0.4 µM; MIC [18]: 0.5 ± 0.03 µM; MBC [18]: 0.9 ± 0.1 µM; MBC (MRSA-1): 1.9 ± 0.1 µM; selectivity index (SI) (MCF-7 [20]; [28]): 2.3; selectivity index (SI) (A549 [21]; [28]): 1.3; MBC [23]: 31.3 ± 2.5 µM; MIC [24]: 31.3 ± 2.4 µM; MBC [24]: 125 ± 11 µM; selectivity index (SI) (SK-OV-3 [25]; [28]): 1.8; selectivity index (SI) (DU-145 [26]; [28]): 7.0
CCCCCCCC[N+](CC)(CC)CC [compound 7, Triethyloctylammonium iodide, reference compound] | 44.6 ± 3.1 | > 100 | 58 ± 4.1 | 250 ± 20 | 500 ± 47 | 16.1 ± 1.3 | 26 | 250 ± 20 |  | 32.7 ± 2.3 | 3.0 | > 100 | ns (ns—no selectivity) | 1.9 ± 0.2 | 29.1 ± 2 | 69 ± 4.8 | > 100 | 250 ± 19 | 1.1 | 500 ± 47 | Minimum bactericidal and fungicidal concentrations (MBC, MFC) [6]: –; selectivity index (SI) (PC3 [12]; [28]): 1.5; Minimum Inhibitory Concentration (MIC) ([13]; Ca): –; Minimum bactericidal and fungicidal concentrations (MBC, MFC) ([13]; Ca): –; selectivity index (SI) (Hep G2 [14]; [27]): ns (ns—no selectivity); Minimum Inhibitory Concentration (MIC) [16]: –; Minimum bactericidal and fungicidal concentrations (MBC, MFC) [16]: –; Minimum Inhibitory Concentration (MIC) [18]: –; Minimum bactericidal and fungicidal concentrations (MBC, MFC) [18]: –; Minimum bactericidal and fungicidal concentrations (MBC, MFC) (MRSA-1): –; selectivity index (SI) (MCF-7 [20]; [28]): 1.7; selectivity index (SI) (A549 [21]; [27]): ns (ns—no selectivity); Minimum bactericidal and fungicidal concentrations (MBC, MFC) ([23]; Bc): –; Minimum Inhibitory Concentration (MIC) [24]: –; Minimum bactericidal and fungicidal concentrations (MBC, MFC) [24]: –; selectivity index (SI) (SK-OV-3 [25]; [27]): ns (ns—no selectivity); selectivity index (SI) (DU-145 [26]; [27]): ns (ns—no selectivity)
